Publication PMC11662004 (Communications Chemistry, 2024)
pIC50: −log10 of the molar value. Several values for one entry are separate records, joined by “and”; a condition that tells them apart may be missing. Equal values may be shown once. Read-outs that look alike come from different tables or passages of the source. Positions of bridges follow the written chain, without caps; N, C: chain ends. Non-standard residues stand in square brackets, D forms with d. Residues, ends and D or L forms follow the SMILES beside them.

Experiments:
[1] = target: T1, NgTet1 (Naegleria gruberi, UniProt D2W6T1); test: biochemical
T1 construct: His6-tagged full-length Naegleria gruberi NgTet1 (321 a. a.) protein with a thrombin cleavage site; made in house; host or cells: E. coli BL21(DE3)
T1 sequence (D2W6T1 1-321): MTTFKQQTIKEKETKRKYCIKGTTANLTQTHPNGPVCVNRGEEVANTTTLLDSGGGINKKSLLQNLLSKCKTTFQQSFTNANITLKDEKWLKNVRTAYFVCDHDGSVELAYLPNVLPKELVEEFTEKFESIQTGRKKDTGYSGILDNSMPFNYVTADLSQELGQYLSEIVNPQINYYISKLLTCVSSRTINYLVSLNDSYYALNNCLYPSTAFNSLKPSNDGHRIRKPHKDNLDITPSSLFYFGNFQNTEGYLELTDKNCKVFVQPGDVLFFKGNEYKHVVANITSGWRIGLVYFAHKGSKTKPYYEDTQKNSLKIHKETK
Experimental: (Fig. 5a), were screened for inhibitory activity against NgTet1.
(§1) Activity was normalised against reactions containing vehicle (DMSO). […] AS data shown as the mean of three experimental replicates (n = 3; mean ± SD); ^1H NMR data plotted from two independent replicates (n = 2); tabulated data reported as the mean of two and three independent replicates for ^1H NMR and AS, respectively (n = 2–3, SD reported for n = 3). N. d.: not determined; AS: AlphaScreen.
Compounds in DMSO (100 nL) were pre-dispensed in a logarithmically linear concentration gradient onto 384-well ProxiPlates using an Echo® 550 acoustic liquid handler (Labcyte). NgTet1 was pre-incubated with the inhibitor dilution series in DMSO at room temperature for 10 min. Reactions were initiated by the addition of appropriate cofactors and DNA. […] The reactions were quenched by the addition of 30 mM EDTA (pH 4.2), 358 mM NaCl (5 μL) within the enzyme linear activity window (determined in Fig. S10). Concurrently, a mixture containing the anti-^5hmC antibody (1:2000 dilution) and AlphaScreen beads (1:62.5 dilution) in assay buffer was prepared and incubated at room temperature for 30 min. The AlphaScreen bead/antibody mixture was added to the quenched NgTet1 reactions (5 μL), and the complete mixture was incubated at room temperature for 1 h. Chemiluminescence was measured on a PHERAstar FS/FSX (BMG Labtech) equipped with an AlphaScreen 680 570 module. All AlphaScreen bead manipulations were performed under subdued lighting. Inhibition data was normalised to reactions containing vehicle only (1% v/v DMSO) and fitted using “log(inhibitor) vs. response—Variable slope (four parameters)” non-linear regression model on GraphPad Prism 5.

[2] = target: T1, NgTet1; test: biochemical; settings: for normalised activity: NgTet1, NMR, 2 independent replicates
Experimental: as §1
All ^1H NMR spectra were recorded at 25 °C using D2O as a reference for internal deuterium lock on a Bruker Avance III 700 MHz equipped with an inverse TCI cryoprobe in 3 or 5 mm diameter tubes with a total sample volume of 160 or 565 μL, respectively. The water signal was reduced using Perfect Echo excitation sculpting suppression. Chemical shifts are reported in ppm relative to D2O (δH = 4.70 ppm).
NgTet1 was pre-incubated with inhibitor dilution series in DMSO-d6 at room temperature for 10 min (50 mM Tris-d11 [pH 7.5], 2% v/v DMSO-d6). Reactions were initiated by the addition of appropriate cofactors and DNA. […] The reactions were quenched by the addition of 9 mM NOG and 9 mM ZnCl2 in 90 mM Tris-d11 [pH 7.5] (20 μL) within the enzyme linear activity window (determined in Figure. S10). Samples were transferred to NMR tubes and subjected to ^1H NMR analysis. Data were processed as described above. Inhibition data was normalised to reactions containing vehicle only (1% v/v DMSO-d6) and fitted using “log(inhibitor) vs. response - Variable slope (four parameters)” non-linear regression model on GraphPad Prism 5.
Activity was normalised against reactions containing vehicle only (100% activity). Data is shown as the mean of 2 independent replicates (n = 2; […]
Fig. S10 Determination of linear NgTet1 enzymatic activity windows for inhibitor characterisation. a 1H NMR succinate detection time courses with no DNA, 5HC DNA (double- […]
complementary 5'-ACC AC5mC GGT GGT-3'). b AlphaScreen 5hmC detection time course using […]
courses shown. 1H NMR reaction conditions: 5 μM NgTet1, 2 mM sodium L-ascorbate, 100 μM […]
v/v D2O. DNA was added to a final concentration of 20 μM of double-stranded DNA. […]

CC[C@H](C)[C@@H]1NC(=O)[C@H](CC(C)C)NC(=O)[C@@H](Cc2ccc(O)cc2)NC(=O)CSC[C@@H](C(N)=O)NC(=O)[C@H](CO)NC(=O)[C@H](Cc2c[nH]cn2)NC(=O)[C@H](CCC(=O)O)NC(=O)[C@H](Cc2c[nH]c3ccccc23)NC(=O)[C@H](Cc2c[nH]c3ccccc23)NC(=O)[C@H]([C@@H](C)O)NC(=O)[C@H](Cc2ccc(O)cc2)NC(=O)[C@H](Cc2ccc(O)cc2)NC(=O)[C@H](C)NC(=O)[C@H](Cc2ccc(O)cc2)NC1=O [TiP1] ({CH2CO}-[dY]LIYAYYTWWEHSC-NH2; thioether N-14)
pIC50 [1]: 4.58 | normalised activity, % ([1]; AlphaScreen, -Log[inhibitor] (M) 8.73132): 115.665% and 99.133% and 91.2094% and 100% and 99.1774% and 99.7728% and 97.6796% | uncoupled 2OG decarboxylase activity relative to control ([2]; 1.2 equivalents (6.17 μM) of ligand, no 5mC DNA substrate): 137% | normalised activity, % ([2]; 5mC DNA, NMR, -Log[inhibitor] (M) 3.30103): 0.3831% and 0.8644% | normalised activity, % ([2]; 5mC DNA, NMR, -Log[inhibitor] (M) 3.77815): 0% | normalised activity, % ([2]; 5mC DNA, NMR, -Log[inhibitor] (M) 4.25527): 7.31% and 14.7287% | normalised activity, % ([2]; 5mC DNA, NMR, -Log[inhibitor] (M) 4.73239): 78.5121% and 83.5696% | normalised activity, % ([2]; 5mC DNA, NMR, -Log[inhibitor] (M) 5.20951): 98.5224% and 104.299% | normalised activity, % ([2]; 5mC DNA, NMR, -Log[inhibitor] (M) 5.68664): 102.213% and 96.5096% | normalised activity, % ([2]; 5mC DNA, NMR, -Log[inhibitor] (M) 6.16376): 101.348% and 99.8653% | normalised activity, % ([2]; 5mC DNA, NMR, -Log[inhibitor] (M) 6.64088): 101.5% and 99.6319% | normalised activity, % ([2]; 5mC DNA, NMR, -Log[inhibitor] (M) 7.118): 99.9781% and 101.169% | normalised activity, % ([2]; 5mC DNA, NMR, -Log[inhibitor] (M) 7.59512): 101.989% and 101.514% | normalised activity ([2]; -Log[inhibitor] (M) 3.30103): 1.539% and 0.6062% | normalised activity ([2]; -Log[inhibitor] (M) 3.77815): 5.644% and 0.04671% | normalised activity ([2]; -Log[inhibitor] (M) 4.25527): 23.0301% and 11.8368% | normalised activity ([2]; -Log[inhibitor] (M) 4.73239): 129.261% and 95.1469% | normalised activity ([2]; -Log[inhibitor] (M) 5.20951): 124.894% and 132.33% | normalised activity ([2]; -Log[inhibitor] (M) 5.68664): 97.9138% and 111.807% | normalised activity ([2]; -Log[inhibitor] (M) 6.16376): 101.603% and 106.324% | normalised activity ([2]; -Log[inhibitor] (M) 6.64088): 102.045% and 105.397% | normalised activity ([2]; -Log[inhibitor] (M) 7.118): 107.511% and 102.971% | normalised activity ([2]; -Log[inhibitor] (M) 7.59512): 96.6941% | pIC50 ([2]; IC50, 5mC DNA, NMR, 2OG decarboxylation with 20 µM 5mC DNA, 5 μM NgTet1, 50 μM 2OG): 4.54 | pIC50 ([2]; IC50, No DNA, NMR, uncoupled 2OG decarboxylation, no DNA, 5 μM NgTet1, 50 μM 2OG): 4.58 | pIC50 ([2]; IC50 across all assays, AS and 1H NMR assays): 4.54 to 4.59 | normalised activity, % ([2]; No DNA, NMR, -Log[inhibitor] (M) 3.30103): 1.539% and 0.6062% | normalised activity, % ([2]; No DNA, NMR, -Log[inhibitor] (M) 3.77815): 5.644% and 0.04671% | normalised activity, % ([2]; No DNA, NMR, -Log[inhibitor] (M) 4.25527): 23.0301% and 11.8368% | normalised activity, % ([2]; No DNA, NMR, -Log[inhibitor] (M) 4.73239): 129.261% and 95.1469% | normalised activity, % ([2]; No DNA, NMR, -Log[inhibitor] (M) 5.20951): 124.894% and 132.33% | normalised activity, % ([2]; No DNA, NMR, -Log[inhibitor] (M) 5.68664): 97.9138% and 111.807% | normalised activity, % ([2]; No DNA, NMR, -Log[inhibitor] (M) 6.16376): 101.603% and 106.324% | normalised activity, % ([2]; No DNA, NMR, -Log[inhibitor] (M) 6.64088): 102.045% and 105.397% | normalised activity, % ([2]; No DNA, NMR, -Log[inhibitor] (M) 7.118): 107.511% and 102.971% | normalised activity, % ([2]; No DNA, NMR, -Log[inhibitor] (M) 7.59512): 96.6941% | normalised activity, % ([2]; TiP1 statistical test, NMR, no DNA, NgTet1/TiP1 ratio 1:1.2, technical replicates): 140.602% and 133.857% and 142.6% and 131.935% | normalised activity, % ([2]; TiP1 statistical test, NMR, no DNA, NgTet1/TiP1 ratio 1:3.7, technical replicates): 103.459% and 107.449% and 116.09% and 117.125%
